Data from US8263642B2, “Antimicrobial compounds and methods of use thereof” (Vanderbilt University, priority 2008, dated 2012).

Assays:
[1] = tested on: hrtAB-driven expression of the xylE reporter gene; test: XylE reporter assay (hrtAB promoter-xylE), Newman; format: cell-based, Staphylococcus aureus; details: for XylE (0.05): level of XylE induction at 0.05 uM of the compound; for XylE (0.5): level of XylE induction at 0.5 uM of the compound; for XylE (5.0): level of XylE induction at 5.0 uM of the compound; for XylE (50.0): level of XylE induction at 50.0 uM of the compound
Description: (§1) With reference to Table 1, “Luminescence” refers to the raw luminescence value obtained in a luminomter. “Control (82.5 nm)” refers to the luminescence value obtained from heme at 82.5 nM as a positive control in the same plate as the experimental. “% lum” is the percentage of luminescence induced by the compound as compared to the heme control in the same plate. […] All of these assays are described in the application. […] “N/T” indicates the test was not performed.
Compounds that activate HssRS-driven hrtAB expression in the luciferase-based screen can be subjected to two separate counter screens to confirm these compounds as active hits. First, compounds of interest can be tested for their ability to activate expression of hrtAB in the XylE expression assay described hereinbelow. This is an in vitro assay that measures hrtAB-driven expression of the xylE reporter gene. The XylE-based reporter assay utilizes slightly more manipulations than the primary luciferase-based screen. […] It should be appreciated that a shortcoming of this counter screen is that it measures reporter gene expression, which is a similar activity as that measured in the primary assay. To address this shortcoming, compounds that are positive in both XylE- and luciferase-based assays can be subjected to a second counter screen as described hereinbelow.
S. aureus strains harboring the appropriate reporter construct were inoculated into 500 μl of TSB containing 10 μg/ml chloramphenicol in 1.5 ml tubes. Cultures were grown O/N at 37° C. with shaking. Bacteria were pelleted by centrifugation and spent medium was aspirated. The pellet was washed once with 500 μl of 20 mM potassium phosphate, pH 7.6, and resuspended in 150 μl of 100 mM potassium phosphate buffer, pH 8.0, 10% (v/v) acetone, 25 μg/ml lysostaphin. After 20 minute incubation at 37° C. and 5 minute incubation on ice, samples were centrifuged at 20,000 g for 30 minutes at 4° C. 1-10 μl of supernatant was added to a 96-well plate and 200 μl of 100 mM potassium phosphate, pH 8.0, 0.2 mM pyrocatechol was added to each well. Formation of 2-hydroxymuconic semialdehyde was tracked by measuring the absorbance at 375 nm every minute for 30 minutes on a Varian MP 50 microplate reader. Protein concentration in samples was determined by BCA (Pierce). One unit of specific activity of XylE in a sample is defined as the formation of 1 nmol of 2-hydroxymuconic semialdehyde per minute per milligram of cellular protein at 30° C. (Chien, Y., Manna, A. C., Projan, S. J., and Cheung, A. L. 1999, “SarA, a global regulator of virulence determinants in Staphylococcus aureus, binds to a conserved motif essential for sar-dependent gene regulation. J. Biol. Chem. 274, 37169-37176).
The hrtAB intergenic region was fused to the xylE structural gene by PCR-SOE. In the first reaction, primer P1B:[…] and P2B:[…] were used to amplify the hrtAB intergenic region from S. aureus strain Newman genomic DNA. In the second PCR reaction primers P3B:[…] and P4B:[…] were used to amplify the xylE structural gene using pALC1639 template DNA (provided by Dr. Ambrose Cheung) and PCR product purified using a Qiagen gel extraction kit. For the PCRSOE reaction, a 1:300 dilution of purified reaction 1 and reaction 2 PCR products was mixed and amplified by PCR using […]. This yielded a construct in which the hrtAB intergenic region is fused to the xylE gene in such a manner that the position of the start codon for xylE corresponds to the position of the start codon for […] in the hrtAB locus. The hrtAB promoter-xylE fusion DNA was then subcloned into pOS1. As a control we also constructed a promoterless xylE vector. The xylE gene was amplified from pACL1639 template DNA using the primers P1C:[…] and P2C:[…] and then cloned into the pOS1 vector.

[2] = tested on: HssRS-dependent hrtAB expression; test: Luminescence-based assay to monitor HssRS-dependent hrtAB expression (phrtABlux reporter), Newman; format: cell-based, Staphylococcus aureus; details: raw luminescence value obtained in a luminometer; Newman
Description: as §1
A hrtAB-driven expression system was created in the pXen vector system (Xenogen) (Francis, K. P., D. Joh, C. Bellinger-Kawahara, M. J. Hawkinson, T. F. Purchio, and P. R. Contag. 2000. Monitoring bioluminescent Staphylococcus aureus infections in living mice using a novel luxABCDE construct. Infect Immun 68:3594-3600). This vector contains a promoterless luxCDABE operon from Photorabdus luminescens which produces blue green light when expressed. The luxCDABE encodes for a fatty acid reductase (LuxCDE) that produces a long chain fatty aldehyde which, when combined with cellular flavin mononucleotide, is oxidized by a luciferase (LuxAB) to produce light. Therefore, this system is useful in that it bypasses the need for substrate addition and is capable of generating light in the absence of any added reagents. Furthermore, the luminescent signal produced by the combined activities of LuxAB and LuxCDE is of sufficient intensity to be visualized in unmanipulated intact bacteria.
To establish an assay that measures HssRS-dependent expression of luxCDABE, the promoter for hrtAB upstream of luxCDABE was cloned and transformed this vector (phrtABlux) into wildtype and ΔhssR S. aureus. A promoterless vector (plux) and a plasmid containing luxCDABE under the control of a constitutive promoter (psrtAlux) (Mazmanian, S. K., G. Liu, H. Ton-That, and O. Schneewind. 1999. “Staphylococcus aureus sortase, an enzyme that anchors surface proteins to the cell wall.” Science 285:760-763) were included as negative and positive controls, respectively. Initially, wildtype S. aureus harboring either plux, phrtABlux, or psrtAlux were plated on solid medium that either lacked heme or contained 4 μM heme. Only wildtype S. aureus containing psrtAlux produced light on solid media regardless of the presence or absence of heme. […] Light was not produced by bacteria containing plux in either condition.
To adapt this system for a HTS to measure ligand recognition by HssRS, luminescence of wildtype and ΔhssR harboring the above listed plasmids in liquid media with or without heme was measured. […] Taken together, these experiments establish a whole cell […] assay that can identify small molecule modifiers of HssRS. This screen, in some aspects, can identify molecules that can be used as molecular probes in structure-function analyses to determine the mechanism by which S. aureus sense host heme.
Upon staphylococcal exposure to heme, HssRS senses heme and activates expression of hrtAB. This process can be measured using a reporter assay that employs a vector encoding the light-producing luxCDABE operon under the control of the hrtAB promoter. This assay results in whole cell luminescence upon HssRS-dependent activation of hrtAB, forming the foundation for the development of an assay suitable for high-throughput screens for small molecule activators of HssRS.
To develop an automated HTS format, S. aureus wildtype and ΔhssR harboring reporter constructs (psrtAlux, phrtAlux, plux) can be grown for 15 hours at 37° C. in tryptic soy broth (TSB) containing 10 μg/ml chloramphenicol. The addition of chloramphenicol is useful to ensure that the staphylococci propagate the reporter plasmid upon cell division. Following growth, bacterial cultures can be normalized and 2×10^7 cells (approximately 2 μl) can be added to individual wells of black walled, clear bottomed, 96-well plates. […]

Row | SMILES | XylE (0.05) [1] | XylE (0.5) [1] | XylE (5.0) [1] | XylE (50.0) [1] | Luminescence [2]
1 | O=C(Nc1ccc(/N=N/c2ccccc2)cc1)c1cccnc1 | 0 | 1 | 1 | 0.7 | 3086
2 | C/C(=N/NC(=O)c1cccc(I)c1)c1ccccc1O | 1 | 0.03 | 0.04 | 0.3 | 5542
3 | CCCCCCC(=O)NC(NC(=S)Nc1ccccc1O)C(Cl)(Cl)Cl (stereo not shown) | 0.5 | 0.2 | 0.04 | 0.03 | 2766
4 | Cc1c(-c2ccccc2)nc2ccccc2c1C(=O)Nc1ccccc1C(F)(F)F | 0.5 | 0.7 | 0.03 | 0.02 | 2424
5 | O=C1C2=C(Nc3nn(-c4ccccc4)c(O)c3C2c2ccc([N+](=O)[O-])cc2)c2ccccc21 (stereo not shown) | 0.4 | 1 | 0.3 | 1 | 2608
6 | CCOC(=O)c1c(NC(=O)C2CCCCC2)sc(C(=O)Nc2ccc(C)c(Cl)c2)c1C | 8 | 2 | 1 | 1 | 2374
7 | Oc1ccc(Nc2n[n+](-c3ccc(Cl)cc3)cc3ccccc23)cc1 | 0.5 | 6 | 1 | 0.6 | 2098
8 | COc1ccccc1N1C(=O)c2ccc(C(=O)OC(C)C(=O)c3ccc(C)cc3)cc2C1=O (stereo not shown) | 1 | 0.6 | 0.7 | 1 | 3189
9 | Oc1ccc(Nc2nc(-c3ccc(Cl)cc3)nc3ccccc23)cc1 | 1 | 1 | 1 | 1 | 3096
10 | CC(C)c1ccc(NS(=O)(=O)c2ccc3[nH]c(-c4ccccc4)nc3c2)cc1 | 1 | 1 | 9 | 1 | 2146
11 | CCOc1ccc(NC(=O)c2sc3nc(C)nc(N4CCCCC4)c3c2C)cc1 | 1 | 0.07 | 1 | 1 | 2277
12 | O=C(Nc1ccc(-c2csc(Nc3cccc(Cl)c3)n2)cc1)c1ccccc1 | 1 | 0.07 | 1 | 0.08 | 3586
13 | CCC(C)NC(=O)c1sc2nc(C)nc(N3CCCCC3)c2c1C (stereo not shown) | 1 | 1 | 1 | 7 | 2301
14 | Brc1ccc2[nH]cc(-c3nc(-c4ccccc4)c(-c4ccccc4)[nH]3)c2c1 | 0.4 | 2 | 1 | 1 | 2549
15 | COc1ccc(OC(=O)c2ccc(N3C(=O)C4C5CCC(C5)C4C3=O)cc2)cc1 (stereo not shown) | – | 0.09 | 0.03 | 0.02 | 3096
16 | O=C(Nc1c2c(nn1-c1ccc(Cl)cc1)CSC2)c1cccc(C(F)(F)F)c1 | – | 0.03 | 0.04 | 0.06 | 2866
17 | Cc1ccc(-c2nc(Nc3ccc4c(c3)OCO4)c3ccccc3n2)cc1 | – | 0.04 | 0 | 0 | 2101
18 | O=c1c2ccccc2nc(/C=C\c2ccccc2F)n1-c1ccccc1F | – | 1 | 0 | 0 | 3115
19 | Nc1ccccc1C(=O)Nc1nc2ccc(Cl)cc2s1 | – | 0.01 | 0.03 | 0.04 | 1741
20 | Cc1ccc2c(c1)C(c1ccccc1)=NNC(c1ccccc1)=N2 | – | 0 | 0.2 | 0.4 | 2763
21 | COc1ccccc1-c1csc(NC(=O)c2ccc(-c3ccccc3)cc2)n1 | – | 0.05 | 1 | 1 | 1704
22 | CC(C)(C)c1cc2c(c(C(C)(C)C)c1)OC(c1cc([N+](=O)[O-])ccc1O)N2 (stereo not shown) | – | 0.04 | 0 | 0.04 | 1805
23 | Cc1c(NC(=O)c2ccc(Cl)c([N+](=O)[O-])c2)cccc1-c1nc2ccccc2o1 | – | 0.06 | 0.1 | 0.5 | 1912
24 | CCc1ccc2oc(-c3ccc(NC(=O)c4ccccc4OC)cc3)nc2c1 | – | 0.05 | 2 | 3 | 2392
25 | FC(F)(F)c1cccc(Nc2nc(-c3cccnc3)nc3ccccc23)c1 | – | 0.02 | 0.05 | 0.02 | 1616
26 | COc1ccc(C2CC(C3C(=O)c4ccccc4C3=O)=NN2)cc1 (stereo not shown) | – | 0.08 | 5 | 0.09 | 1888
